PubChem BioAssay (NCI)
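Method: 48-hour compound exposure of cells in 96-well plates, five concentrations, linear interpolation of endpoints. TGI: concentration producing complete growth inhibition.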

Tests used:
Assay in all cases: NCI tumour cell line growth inhibition, 48 h
ACHN renal = test system: ACHN renal
COLO 205 colon = test system: COLO 205 colon
HT29 colon = test system: HT29 colon
MDA-MB-435 = test system: MDA-MB-435
OVCAR-3 ovarian = test system: OVCAR-3 ovarian
OVCAR-4 ovarian = test system: OVCAR-4 ovarian
SK-MEL-2 melanoma = test system: SK-MEL-2 melanoma
SK-OV-3 ovarian = test system: SK-OV-3 ovarian
SW-620 colon = test system: SW-620 colon
U251 CNS = test system: U251 CNS
UACC-62 melanoma = test system: UACC-62 melanoma
DU-145 prostate = test system: DU-145 prostate
SN12C renal = test system: SN12C renal

CO[C@@]12C[C@@H](C)C3=CCC(C)=C3CC1=C(C)C(=O)O2 showed a TGI (ACHN renal) of over 100 µM, a TGI (COLO 205 colon) of over 100 µM and a TGI (HT29 colon) of over 100 µM. It also gave a TGI (MDA-MB-435) of over 100 µM, a TGI (OVCAR-3 ovarian) of over 100 µM and a TGI (OVCAR-4 ovarian) of over 100 µM. The TGI (SK-MEL-2 melanoma) was over 100 µM, the TGI (SK-OV-3 ovarian) was over 100 µM and the TGI (SW-620 colon) was over 100 µM. For the same compound, the TGI (U251 CNS) was over 100 µM and the TGI (UACC-62 melanoma) was over 100 µM.
In the case of CC(=O)Nc1sc(Br)cc1S(=O)(=O)c1ccc(Cl)cc1, the TGI (ACHN renal) is reported as over 100 µM, the TGI (DU-145 prostate) is reported as over 100 µM and the TGI (HT29 colon) is reported as 30.8 µM. The TGI (MDA-MB-435) was over 100 µM, the TGI (OVCAR-3 ovarian) was 47.2 µM and the TGI (OVCAR-4 ovarian) was 64.5 µM. For the same compound, the TGI (SK-MEL-2 melanoma) was over 100 µM, the TGI (SK-OV-3 ovarian) was over 100 µM and the TGI (SN12C renal) was over 100 µM. For the same compound, the TGI (SW-620 colon) was over 100 µM, the TGI (U251 CNS) was over 100 µM and the TGI (UACC-62 melanoma) was over 100 µM.
In the case of CCCNC(=O)NNC(=O)c1c[nH]c2nc(C)ccc2c1=O, the TGI (ACHN renal) is reported as over 100 µM, the TGI (COLO 205 colon) is reported as over 100 µM and the TGI (DU-145 prostate) is reported as over 100 µM. The TGI (HT29 colon) was over 100 µM, the TGI (MDA-MB-435) was over 100 µM and the TGI (OVCAR-3 ovarian) was over 100 µM. The TGI (OVCAR-4 ovarian) was over 100 µM, the TGI (SK-MEL-2 melanoma) was over 100 µM and the TGI (SN12C renal) was over 100 µM. The TGI (SW-620 colon) was over 100 µM, the TGI (U251 CNS) was over 100 µM and the TGI (UACC-62 melanoma) was over 100 µM.
CCOC(=O)NC(Nc1ccc(C)cc1)(C(F)(F)F)C(F)(F)F showed a TGI (ACHN renal) of over 100 µM, a TGI (COLO 205 colon) of over 100 µM and a TGI (DU-145 prostate) of over 100 µM. The TGI (HT29 colon) was over 100 µM, the TGI (MDA-MB-435) was over 100 µM and the TGI (OVCAR-3 ovarian) was over 100 µM. It also gave a TGI (OVCAR-4 ovarian) of over 100 µM, a TGI (SK-OV-3 ovarian) of over 100 µM and a TGI (SN12C renal) of over 100 µM. The TGI (SW-620 colon) was over 100 µM, the TGI (U251 CNS) was over 100 µM and the TGI (UACC-62 melanoma) was over 100 µM.
CCCCCCNc1n[nH]c(=O)c2c1nnn2Cc1ccccc1 gave a TGI (ACHN renal) of over 100 µM, a TGI (COLO 205 colon) of over 100 µM and a TGI (DU-145 prostate) of over 100 µM. The TGI (HT29 colon) was over 100 µM, the TGI (MDA-MB-435) was over 100 µM and the TGI (OVCAR-3 ovarian) was over 100 µM. The TGI (OVCAR-4 ovarian) was over 100 µM, the TGI (SK-MEL-2 melanoma) was over 100 µM and the TGI (SN12C renal) was over 100 µM. It also gave a TGI (U251 CNS) of over 100 µM.
COc1cccc(C(=O)Oc2ccc(OS(=O)(=O)c3ccc(C)cc3)cc2)c1C#N was tested, and the TGI (ACHN renal) was over 100 µM, the TGI (COLO 205 colon) was over 100 µM and the TGI (DU-145 prostate) was over 100 µM. The TGI (HT29 colon) was over 100 µM, the TGI (MDA-MB-435) was over 100 µM and the TGI (OVCAR-3 ovarian) was over 100 µM. The TGI (OVCAR-4 ovarian) was over 100 µM, the TGI (SK-MEL-2 melanoma) was over 100 µM and the TGI (SN12C renal) was over 100 µM. For the same compound, the TGI (SW-620 colon) was over 100 µM, the TGI (U251 CNS) was over 100 µM and the TGI (UACC-62 melanoma) was over 100 µM.
For O=C1Nc2cccc(Cl)c2/C1=C\c1c(Cl)nc2n1CCS2, the TGI (ACHN renal) was over 100 µM, the TGI (COLO 205 colon) was over 100 µM and the TGI (DU-145 prostate) was over 100 µM. It also gave a TGI (HT29 colon) of over 100 µM, a TGI (MDA-MB-435) of over 100 µM and a TGI (OVCAR-3 ovarian) of over 100 µM. It also gave a TGI (SK-MEL-2 melanoma) of over 100 µM, a TGI (SK-OV-3 ovarian) of over 100 µM and a TGI (SN12C renal) of over 100 µM. The TGI (SW-620 colon) was over 100 µM, the TGI (U251 CNS) was over 100 µM and the TGI (UACC-62 melanoma) was over 100 µM.
Compound COc1cc(Nc2nc3ccccc3nc2C(=O)O)cc(OC)c1OC has a TGI (ACHN renal) of over 100 µM, a TGI (COLO 205 colon) of over 100 µM and a TGI (DU-145 prostate) of over 100 µM. The TGI (MDA-MB-435) was over 100 µM, the TGI (OVCAR-3 ovarian) was over 100 µM and the TGI (SK-OV-3 ovarian) was over 100 µM. It also gave a TGI (SN12C renal) of over 100 µM, a TGI (SW-620 colon) of over 100 µM and a TGI (U251 CNS) of over 100 µM.
With Cn1c(=O)c2c(ncn2CCNC(CO)C(O)c2ccc([N+](=O)[O-])cc2)n(C)c1=O (stereo not drawn) the TGI (ACHN renal) was over 100 µM, the TGI (COLO 205 colon) was over 100 µM and the TGI (HT29 colon) was over 100 µM. It also gave a TGI (MDA-MB-435) of over 100 µM, a TGI (OVCAR-3 ovarian) of over 100 µM and a TGI (OVCAR-4 ovarian) of over 100 µM. It also gave a TGI (SK-MEL-2 melanoma) of over 100 µM, a TGI (SK-OV-3 ovarian) of over 100 µM and a TGI (SN12C renal) of over 100 µM. It also gave a TGI (U251 CNS) of over 100 µM and a TGI (UACC-62 melanoma) of over 100 µM.
For N#CC1C(=S)NC(c2ccccc2)=CC12CCCCC2 (stereo not drawn), the TGI (ACHN renal) was 72.3 µM, the TGI (COLO 205 colon) was over 100 µM and the TGI (DU-145 prostate) was 61.5 µM. It also gave a TGI (HT29 colon) of over 100 µM, a TGI (MDA-MB-435) of 40.3 µM and a TGI (OVCAR-4 ovarian) of 85.5 µM. For the same compound, the TGI (SK-MEL-2 melanoma) was 55.8 µM, the TGI (SN12C renal) was over 100 µM and the TGI (SW-620 colon) was over 100 µM. It also gave a TGI (U251 CNS) of over 100 µM and a TGI (UACC-62 melanoma) of 42.7 µM.
CCN(CC)CCNc1ccc2nnn3c4ccc(OCCN(CC)CC)cc4c(=O)c1c23 was tested, and the TGI (ACHN renal) was over 100 µM, the TGI (COLO 205 colon) was over 100 µM and the TGI (DU-145 prostate) was over 100 µM. For the same compound, the TGI (HT29 colon) was 54.2 µM, the TGI (MDA-MB-435) was over 100 µM and the TGI (OVCAR-4 ovarian) was 41.3 µM. It also gave a TGI (SK-MEL-2 melanoma) of over 100 µM, a TGI (SK-OV-3 ovarian) of over 100 µM and a TGI (SN12C renal) of over 100 µM. For the same compound, the TGI (SW-620 colon) was over 100 µM, the TGI (U251 CNS) was over 100 µM and the TGI (UACC-62 melanoma) was over 100 µM.
With c1ccc(N=C(N2CCCC2)N(CCN2CCCC2)c2ccccc2)cc1 the TGI (ACHN renal) was over 100 µM, the TGI (COLO 205 colon) was 75.4 µM and the TGI (HT29 colon) was 14.8 µM. For the same compound, the TGI (MDA-MB-435) was over 100 µM, the TGI (OVCAR-3 ovarian) was over 100 µM and the TGI (OVCAR-4 ovarian) was over 100 µM. For the same compound, the TGI (SK-MEL-2 melanoma) was over 100 µM, the TGI (SK-OV-3 ovarian) was over 100 µM and the TGI (SN12C renal) was over 100 µM. For the same compound, the TGI (SW-620 colon) was over 100 µM, the TGI (U251 CNS) was over 100 µM and the TGI (UACC-62 melanoma) was over 100 µM.
For COc1cc2c(cc1OC)C(CC1=C(c3ccccc3)CN3CCc4cc(OC)c(OC)cc4C3C1)NCC2 (stereo not drawn), the TGI (ACHN renal) was 42.3 µM, the TGI (COLO 205 colon) was 31.4 µM and the TGI (HT29 colon) was 26.3 µM. For the same compound, the TGI (OVCAR-3 ovarian) was 34.8 µM, the TGI (OVCAR-4 ovarian) was 29.8 µM and the TGI (SK-MEL-2 melanoma) was 37.1 µM. For the same compound, the TGI (SK-OV-3 ovarian) was 43.9 µM, the TGI (SN12C renal) was 37 µM and the TGI (SW-620 colon) was 34.6 µM. The TGI (U251 CNS) was 29.8 µM and the TGI (UACC-62 melanoma) was 36.3 µM.
With Cc1c(C)c2c(c(N)c1C#N)C(=O)N(NC(=O)c1ccccc1)C2=O the TGI (ACHN renal) was over 100 µM, the TGI (COLO 205 colon) was over 100 µM and the TGI (DU-145 prostate) was over 100 µM. The TGI (MDA-MB-435) was over 100 µM, the TGI (OVCAR-3 ovarian) was over 100 µM and the TGI (OVCAR-4 ovarian) was over 100 µM. For the same compound, the TGI (SK-MEL-2 melanoma) was over 100 µM, the TGI (SN12C renal) was over 100 µM and the TGI (SW-620 colon) was over 100 µM. For the same compound, the TGI (U251 CNS) was over 100 µM and the TGI (UACC-62 melanoma) was over 100 µM.
